The target of assay [1] is T1, binding of His-XIAP(BIR2)-avi fusion protein to GST-RIPK2 fusion protein (RIPK2/XIAP) (Homo sapiens, UniProt O43353).
T1 construct: made in house; host or cells: baculovirus infected Sf9 cells
Description: RIPK2-XIAP binding competition PPI assay (TR-FRET). To be noted: RIPK2/XIAP binding competition PPI assay; for Emax: read-out: PPI Amax bin; for IC50: read-out: PPI IC50 bin. The text has this:
The ability of selected compounds of Formula (I) to inhibit the binding of an His-XIAP(BIR2)-avi fusion protein to a GST-RIPK2 fusion protein was quantified employing the TR-FRET-based competition assay as described in the following paragraphs.
Recombinant fusion protein of N-terminal Glutathione-S-Transferase (GST) and a fragment of human RIPK2 (amino acids 1-310 of accession number 043353), expressed in baculovirus infected Sf9 cells, purified via glutathione affinity chromatography, was used as GST-RIPK2 fusion protein. Recombinant fusion protein of N-terminal 6×Histidine (His), a fragment of human XIAP (amino acids 152-231 of accession number P98170), and C-terminal avi tag, expressed in baculovirus infected Sf9 cells, purified via Nickel NTA affinity chromatography, was used as the His-XIAP(BIR2)-avi fusion protein.
For the assay, a working solution of 1 nM GST-RIPK2, 25 nM His-XIAP(BIR2)-avi, 6 nM Anti-His-XL665 […] (Revvity Catalogue No. 61HISXLB), and 0.5 nM Anti-GST-Tb (Revvity Catalogue No. 61GSTTLB) in 25 mM Tris-HCl 7.5, 0.5 mM ethylene glycol-bis(2-aminoethylether)-N,N,N′,N′-tetraacetic acid (EGTA), 10 mM magnesium chloride (MgCl2), 2.5 mM dithiothreitol (DTT), 0.01% (w/v) bovine serum albumin (BSA), 0.005% (w/v) Pluronic F-127 (Sigma), 0.5 mM sodium ortho-vanadate, 5 mM β-Glycerophosphate disodium salt hydrate (BGP) was prepared. 50 nL of a 100-fold concentrated solution of each test compound in DMSO was dispensed via acoustic dispensing into a white low volume 384-well microtiter plate (Perkin Elmer Catalogue No. 6008280). Subsequently, 5 μL of the assay working solution were added.
The resulting mixture was incubated 120 min at 23° C. Subsequently, the amount of complex formed by the GST-RIPK2, XIAP(BIR2)-avi, Anti-His-XL665, and Anti-GST-Tb was evaluated by measurement of the resonance energy transfer from the Tb-cryptate to the XL665. Therefore, the fluorescence emissions at 520 nm and 665 nm after excitation at 337 nm were measured in a TR-FRET reader, e.g. a Pherastar FS (BMG Labtechnologies, Offenburg, Germany) or an Envision (PerkinElmer). The ratio of the emissions at 665 nm and at 520 nm was taken as the measure of the amount of the complex. The data were normalized (assay reaction without inhibitor=0% activity, 50 nM of GSK583=−100% activity).
For the RIPK2/XIAP binding competition PPI assay Amax values, “A” denotes an Amax of ≥80%; “B” denotes an Amax of 80%>B≥55; “C” denotes an Amax of 55%>C>30; and “D” denotes an Amax of ≤30%.
In general terms: In TR-FRET formats the signal depends on donor and acceptor labels being close together.

Assay [2] has as its system NF-κB pathway (SEAP) in THP1-Dual cells. Description: THP-1 Dual cell SEAP assay (L18-MDP stimulated). It is filed as cell-based. Conditions: read-out: NF-κB THP1 IC50 bin. Here is the method: THP1-Dual™ cells (InvivoGen Cat #thpd-nfis) allow simultaneous assessment of the NF-κB pathway, by monitoring the activity of secreted embryonic alkaline phosphatase (SEAP) as well as the IRF pathway, by assessing the activity of a secreted luciferase (Lucia). Cells were cultured according to manufacturers' recommendations. For the assay, cell concentration was adjusted to 7.14×10^5 cells/mL in assay media (RPMI 1640, 2 mM L-Glutamine, 25 mM HEPES, 10% fetal bovine serum (heat-inactivated for 30 min at 56° C.), Pen-Strep (100 U/mL)) and 35 µL of cell suspension (˜25,000 cells) per well were added to a flat bottom 384-well plate (white opaque). Plate was centrifuged at 300 g for 2 min, compounds were added in serial dilution series according to the plate layout (volumes ˜500 nL-0.0152 nL) and plate was incubated at 37° C. in 5% CO2 for 30 min. Using assay media, a L18-MDP stock solution, that results in a final concentration of 10 ng/mL L18-MDP in each well when adding 15 μL to each well, was prepared. 15 μL of L18-MDP stock solution was added to each well, while 15 μL of assay media was added to the negative control wells. Plates were subsequently incubated at 37° C. in 5% CO2 overnight (20-24 h).
For the SEAP assay: without disturbing the cells at the bottom of the well, 15 μL supernatant was transferred to a clear 384-well flat bottom plate and 35 μL QUANTI-Blue Solution per well was added. Following a 2 h incubation at 37° C., the optical density (OD) was measured at 620-655 nm using a microplate reader (PheraStar FS microplate reader with protocol for OD 620-655 nm).
Values of media-only wells were subtracted and % inhibition for each compound concentration relative to the DMSO/L18-MDP-treated controls was calculated. Inhibition values+/−SD were fitted by non-linear regression using Prism software (GraphPad PRISM Software) to calculate IC50 values.

What is called IC50 is the concentration needed to halve the response being measured.

Structures are written as SMILES. Like-named read-outs stand apart in the source and are kept apart here. Bounds are passed on as bounds.

T1 sequence (O43353 1-310 limits assumed): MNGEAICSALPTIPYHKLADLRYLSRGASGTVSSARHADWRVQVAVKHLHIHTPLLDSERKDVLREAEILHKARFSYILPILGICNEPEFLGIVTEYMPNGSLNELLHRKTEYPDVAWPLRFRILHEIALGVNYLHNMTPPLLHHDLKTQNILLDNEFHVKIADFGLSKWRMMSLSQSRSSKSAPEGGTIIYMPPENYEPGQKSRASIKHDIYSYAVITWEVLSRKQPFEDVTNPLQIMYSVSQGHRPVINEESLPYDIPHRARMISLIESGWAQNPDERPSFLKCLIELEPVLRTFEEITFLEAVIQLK

`CC(=O)COc1cc2ncc(-c3cc(Cl)c(N)nc3F)n2cc1S(=O)(=O)C(C)(C)C` [Example 300, 1-((3-(6-amino-5-chloro-2-fluoropyridin-3-yl)-6-(tert-butylsulfonyl)imidazo[1,2-a]pyridin-7-yl)oxy)propan-2-one]: the Emax in assay [1] (Amax) was above 80%. Besides, the IC50 lay within 2.5 to 20 nM in assay [1] and 250 to 1000 nM in assay [2] (Homo sapiens, THP1-Dual).

As for `COc1cc2ncc(-c3cc(F)c(OC)c(NS(=O)(=O)c4cn[nH]c4)c3)n2cc1C(F)(F)F` [Example 137, N-(3-fluoro-2-methoxy-5-(7-methoxy-6-(trifluoromethyl)imidazo[1,2-a]pyridin-3-yl)phenyl)-1H-pyrazole-4-sulfonamide], in assay [1] (Amax), the Emax was above 80%. Also, the half-inhibitory concentration (IC50) was 2.5 to 20 nM in assay [1] and 250 to 1000 nM in assay [2] (Homo sapiens, THP1-Dual).

Regarding `COc1cc(NS(=O)(=O)c2cnn(C)c2)cc(-c2cnc3cc(OC)c(S(=O)(=O)C(C)(C)C)cn23)c1` [Example 285, N-(3-(6-(tert-butylsulfonyl)-7-methoxyimidazo[1,2-a]pyridin-3-yl)-5-methoxyphenyl)-1-methyl-1H-pyrazole-4-sulfonamide], the Emax in assay [1] (Amax) is above 80%. Also, the IC50 is below 1 nM in assay [1] and below 50 nM in assay [2] (Homo sapiens, THP1-Dual).

Turning to `COc1cc2ncc(-c3cc(F)c(OC)c(NS(=O)(=O)c4coc(C)n4)c3)n2cc1S(=O)(=O)C(C)(C)C` [Example 293, N-(5-(6-(tert-butylsulfonyl)-7-methoxyimidazo[1,2-a]pyridin-3-yl)-3-fluoro-2-methoxyphenyl)-2-methyloxazole-4-sulfonamide], the Emax in assay [1] (Amax) lay in the range of 30 to 55%. The IC50 in assay [1] was below 1 nM; in assay [2] (Homo sapiens, THP1-Dual) it was below 50 nM.

With `COc1cc2ncc(-c3cc(F)c(OC)c(NS(=O)(=O)c4cc(C)no4)c3)n2cc1S(=O)(=O)C(C)(C)C` [Example 288, N-(5-(6-(tert-butylsulfonyl)-7-methoxyimidazo[1,2-a]pyridin-3-yl)-3-fluoro-2-methoxyphenyl)-3-methylisoxazole-5-sulfonamide], the Emax in assay [1] (Amax) was below 30%. The half-maximal inhibitory concentration (IC50) was above 20 nM in assay [1] and above 1000 nM in assay [2] (Homo sapiens, THP1-Dual).

As to `CCS(=O)(=O)Nc1cc(-c2cnc3cc(OC[C@H](C)O)c(S(=O)(=O)C(C)(C)C)cn23)cc(F)c1OC` [Example 270, (S)-N-(5-(6-(tert-butylsulfonyl)-7-(2-hydroxypropoxy)imidazo[1,2-a]pyridin-3-yl)-3-fluoro-2-methoxyphenyl) ethanesulfonamide], in assay [1] (Amax), the Emax was 55 to 80%. For the same compound, the IC50 was below 1 nM in assay [1] and below 50 nM in assay [2] (Homo sapiens, THP1-Dual).

`COc1cc2ncc(-c3cccc(NS(=O)(=O)c4cnn(C)c4)c3)n2cc1S(=O)(=O)C(C)(C)C` [Example 294, N-(3-(6-(tert-butylsulfonyl)-7-methoxyimidazo[1,2-a]pyridin-3-yl)phenyl)-1-methyl-1H-pyrazole-4-sulfonamide]: the Emax in assay [1] (Amax) was above 80%. Also, the 50% inhibitory concentration (IC50) is below 1 nM in assay [1] and 50 to 250 nM in assay [2] (Homo sapiens, THP1-Dual).

With `COc1cc2ncc(-c3cc(F)c(OC)c(NS(=O)(=O)c4cnc(C)s4)c3)n2cc1S(=O)(=O)C(C)(C)C` [Example 287, N-(5-(6-(tert-butylsulfonyl)-7-methoxyimidazo[1,2-a]pyridin-3-yl)-3-fluoro-2-methoxyphenyl)-2-methylthiazole-5-sulfonamide], in assay [1] (Amax), the Emax is 55 to 80%. For the same compound, the half-inhibitory concentration (IC50) in assay [1] is below 1 nM; in assay [2] (Homo sapiens, THP1-Dual), 50 to 250 nM.

With `CCOc1cc2ncc(-c3cc(F)c(OC)c(NS(=O)(=O)c4cnn(C)c4)c3)n2cc1S(=O)(=O)C(C)C` [Example 138, N-(5-(7-ethoxy-6-(isopropylsulfonyl)imidazo[1,2-a]pyridin-3-yl)-3-fluoro-2-methoxyphenyl)-1-methyl-1H-pyrazole-4-sulfonamide], in assay [1] (Amax), the Emax is above 80%. Besides, the IC50 was below 1 nM in assay [1] and below 50 nM in assay [2] (Homo sapiens, THP1-Dual).

On to `CC(F)(CO)COc1cc2ncc(-c3cc(F)c(N)nc3F)n2cc1S(=O)(=O)C(C)(C)C` (single isomer, unassigned) [Example 260], for which the Emax in assay [1] (Amax) is above 80%. Besides, the IC50 in assay [1] lay in the range of 1 to 2.5 nM; in assay [2] (Homo sapiens, THP1-Dual), 50 to 250 nM.

As for `COc1cc2ncc(-c3cc(F)c(OC)c(NC(C)c4cnn(C)c4)c3)n2cc1S(=O)(=O)C(C)(C)C` (single isomer, unassigned) [Example 303], the “PPI Amax bin” value in assay [1] (Amax) was “A (an Amax of ≥80%)”. The concentration for half-maximal inhibition (IC50) in assay [1] lay in the range of 2.5 to 20 nM; in assay [2], 250 to 1000 nM.

(Values after patent US20260137706A1, “METHODS OF TREATING INFLAMMATORY DISEASES” (INTERLINE THERAPEUTICS, INC., priority 2023, published 2026).)
